In patent publication US20250129067A1 (Progentos Therapeutics, Inc., priority 2021, published 2025):
Read-outs that look alike come from different tables or passages of the source.

Tests used:
[1] = test system: Oligodendrocyte progenitor cells (OPCs); assay: In vitro OPC differentiation assay, GPR17 expression (immunocytochemistry); conditions: 72 hours; for GPR17 Fold Induction (Over Vehicle; 3 μM): 3 μM (10× concentration, final 0.3 μM), fold change over vehicle
PDGFRα = PDGFRα (Homo sapiens (Human), UniProt P16234); assay: PDGFRα kinase enzyme assay (Promega PDGFRα Kinase Enzyme System, ADP-Glo); format: biochemical; conditions: 150 uM ATP
Method: The PDGFRα enzyme assays were conducted per the manufacturer's directions (Promega PDGFRα Kinase Enzyme System and ADP Glo Assay Cat #V8011). […] 20 ng of purified PDGFRα protein was added to the test article. […] ADP-Glo was added to halt the kinase reaction and deplete the remaining ATP. Kinase detection reagent, containing luciferase and luciferin, was used to convert the ADP signal into luminescence. Luminescence was measured using a Molecular Devices Spectramax ID5 and compared to a standard curve to determine kinase activity. IC50s were calculated using Prism 9, Graphpad software.

[2] = 11-point dose response, 10,000 nM to 0.169 nM, BLQ = below limit of quantitation, read-out: IC50 Values on PDGFRα Kinase Inhibition, IC50

Sequence of PDGFRα (P16234 24-1089): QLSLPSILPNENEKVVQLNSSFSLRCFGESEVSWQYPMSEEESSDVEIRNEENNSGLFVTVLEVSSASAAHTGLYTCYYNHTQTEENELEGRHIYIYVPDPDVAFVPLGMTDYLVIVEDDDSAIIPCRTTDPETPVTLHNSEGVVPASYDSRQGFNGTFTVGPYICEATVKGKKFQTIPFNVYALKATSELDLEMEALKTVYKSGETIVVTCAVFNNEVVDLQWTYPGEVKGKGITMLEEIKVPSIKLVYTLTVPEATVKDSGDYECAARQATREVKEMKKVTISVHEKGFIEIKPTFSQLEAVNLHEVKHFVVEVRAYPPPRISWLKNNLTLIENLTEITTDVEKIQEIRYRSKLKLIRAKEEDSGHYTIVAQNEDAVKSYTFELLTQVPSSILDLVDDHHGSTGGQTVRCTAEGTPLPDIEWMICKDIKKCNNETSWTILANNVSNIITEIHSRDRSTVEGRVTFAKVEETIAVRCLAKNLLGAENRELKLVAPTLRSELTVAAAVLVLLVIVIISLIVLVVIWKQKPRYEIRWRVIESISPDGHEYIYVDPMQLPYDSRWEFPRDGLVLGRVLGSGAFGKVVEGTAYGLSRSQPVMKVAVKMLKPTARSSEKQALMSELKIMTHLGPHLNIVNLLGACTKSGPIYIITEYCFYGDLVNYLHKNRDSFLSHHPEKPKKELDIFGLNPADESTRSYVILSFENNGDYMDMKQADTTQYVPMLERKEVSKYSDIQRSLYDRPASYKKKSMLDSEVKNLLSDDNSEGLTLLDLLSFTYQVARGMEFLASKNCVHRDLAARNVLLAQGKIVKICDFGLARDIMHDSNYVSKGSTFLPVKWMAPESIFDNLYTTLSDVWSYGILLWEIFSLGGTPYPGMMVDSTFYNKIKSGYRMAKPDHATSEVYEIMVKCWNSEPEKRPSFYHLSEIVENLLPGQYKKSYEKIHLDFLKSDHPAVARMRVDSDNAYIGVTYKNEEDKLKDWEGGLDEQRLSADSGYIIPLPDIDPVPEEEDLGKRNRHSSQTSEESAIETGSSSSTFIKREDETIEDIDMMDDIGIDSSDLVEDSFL

## Cn1cc(-c2ccc3c(N4CCN(C(=O)OCc5ccc(Cl)s5)CC4)cnn3c2)cn1 [Compound 196, (5-chlorothiophen-2-yl)methyl 4-(6-(1-methyl-1H-pyrazol-4-yl)pyrazolo[1,5-a]pyridin-3-yl)piperazine-1-carboxylate]
[1]
  GPR17 Fold Induction (Over Vehicle; 3 μM): 5.65
PDGFRα; [2]
  IC50: 0.522 µM

## CC(C)(C)OC(=O)N1CCN(c2cnn3cc(-c4ccncc4)ccc23)CC1 [Compound 218, tert-butyl 4-(6-(pyridin-4-yl)pyrazolo[1,5-a]pyridin-3-yl)piperazine-1-carboxylate]
[1]
  GPR17 Fold Induction (Over Vehicle; 3 μM): 3.46
PDGFRα; [2]
  IC50: 2.31 µM

## Cn1cc(-c2cc3ncc(N4CCCN(c5ncc(Cc6ccccc6)cn5)CC4)n3cn2)cn1 [Compound 114, 3-(4-(5-benzylpyrimidin-2-yl)-1,4-diazepan-1-yl)-7-(1-methyl-1H-pyrazol-4-yl)imidazo[1,2-c]pyrimidine]
[1]
  GPR17 Fold Induction (Over Vehicle; 3 μM): 0.33
PDGFRα; [2]
  IC50: > 10 µM

## C[C@@H](OC(=O)N1CCN(c2cnn3cc(-c4cnn(C)c4)ccc23)CC1)c1ccccc1F [Compound 81, (1R)-1-(2-Fluorophenyl)ethyl 4-[6-(1-methyl-1H-pyrazol-4-yl)pyrazolo[1,5-a]pyridin-3-yl]piperazine-1-carboxylate]
[1]
  GPR17 Fold Induction (Over Vehicle; 3 μM): 6.74
PDGFRα; [2]
  IC50: 0.0972 µM

## CC(C)(C)OC(=O)N1CCCN(c2cnc3cc(C4CCOC4)ncn23)CC1 (stereo not shown) [Compound 94, tert-butyl 4-(7-(tetrahydrofuran-3-yl)imidazo[1,2-c]pyrimidin-3-yl)-1,4-diazepane-1-carboxylate]
[1]
  GPR17 Fold Induction (Over Vehicle; 3 μM): 1.00
PDGFRα; [2]
  IC50: > 10 µM

## Cn1cc(-c2ccc3c(N4CC5(CN(c6ncc(Cc7ccccc7)cn6)C5)C4)cnn3c2)cn1 [Compound 48, 3-[6-(5-benzylpyrimidin-2-yl)-2,6-diazaspiro[3.3]hept-2-yl]-6-(1-methyl-pyrazol-4-yl)pyrazolo[1,5-a]pyridine]
[1]
  GPR17 Fold Induction (Over Vehicle; 3 μM): 2.75
PDGFRα; [2]
  IC50: > 10 µM

## Cn1cc(-c2ccc3c(N4CCN(c5ncc(Oc6ccccc6)cn5)CC4)cnn3c2)cn1 [Compound 166, 6-(1-methyl-1H-pyrazol-4-yl)-3-(4-(5-phenoxypyrimidin-2-yl)piperazin-1-yl)pyrazolo[1,5-a]pyridine]
[1]
  GPR17 Fold Induction (Over Vehicle; 3 μM): 6.36
PDGFRα; [2]
  IC50: 3.57 µM

## Cn1cc(-c2ccc3c(C4CCC(C(=O)OCc5ccccc5)CC4)cnn3c2)cn1 (stereo not shown) [Compound 136, benzyl 4-(6-(1-methyl-1H-pyrazol-4-yl)pyrazolo[1,5-a]pyridin-3-yl)cyclohexane-1-carboxylate]
[1]
  GPR17 Fold Induction (Over Vehicle; 3 μM): 3.64
PDGFRα; [2]
  IC50: > 10 µM

## CC(C)(C)OC(=O)N1CCN(c2cnn3cc(-c4cccc(F)c4)ccc23)CC1 [Compound 208, tert-butyl 4-(6-(3-fluorophenyl)pyrazolo[1,5-a]pyridin-3-yl)piperazine-1-carboxylate]
[1]
  GPR17 Fold Induction (Over Vehicle; 3 μM): 1.22
PDGFRα; [2]
  IC50: > 10 µM

## Cn1cc(-c2ccc3c(N4CCN(c5ncc(S(=O)(=O)c6ccccc6)cn5)CC4)cnn3c2)cn1 [Compound 186, 6-(1-methyl-1H-pyrazol-4-yl)-3-(4-(5-(phenylsulfonyl)pyrimidin-2-yl)piperazin-1-yl)pyrazolo[1,5-a]pyridine]
[1]
  GPR17 Fold Induction (Over Vehicle; 3 μM): 1.26
PDGFRα; [2]
  IC50: > 10 µM

## Cn1cc(-c2ccc3c(C4CCN(c5ncc(Cc6ccccc6)cn5)C4)cnn3c2)cn1 (stereo not shown) [Compound 75, 3-[1-(5-benzylpyrimidin-2-yl)pyrrolidin-3-yl]-6-(1-methyl-1H-pyrazol-4-yl)pyrazolo[1,5-a]pyridine]
[1]
  GPR17 Fold Induction (Over Vehicle; 3 μM): 3.34
PDGFRα; [2]
  IC50: 6.59 µM

## COCCn1cc(-c2cc3ncc(N4CCN(C(=O)OC(C)(C)C)CC4)n3cn2)cn1 [Compound 88, tert-butyl 4-(7-(1-(2-methoxyethyl)-1H-pyrazol-4-yl)imidazo[1,2-c]pyrimidin-3-yl)piperazine-1-carboxylate]
[1]
  GPR17 Fold Induction (Over Vehicle; 3 μM): 2.90
PDGFRα; [2]
  IC50: 1.6 µM

## COc1ccccc1-c1ccc2c(N3CCN(C(=O)OC(C)(C)C)CC3)cnn2c1 [Compound 212, tert-butyl 4-(6-(2-methoxyphenyl)pyrazolo[1,5-a]pyridin-3-yl)piperazine-1-carboxylate]
[1]
  GPR17 Fold Induction (Over Vehicle; 3 μM): 2.51
PDGFRα; [2]
  IC50: 3.67 µM

## Cn1cc(-c2ccn3c(N4CCCN(c5ncc(Cc6ccccc6)cn5)CC4)cnc3n2)cn1 [Compound 122, 3-(4-(5-benzylpyrimidin-2-yl)-1,4-diazepan-1-yl)-7-(1-methyl-1H-pyrazol-4-yl)imidazo[1,2-a]pyrimidine]
[1]
  GPR17 Fold Induction (Over Vehicle; 3 μM): 3.19
PDGFRα; [2]
  IC50: > 10 µM

## CN(CCN(C)c1cnc2nc(C3CCOC3)ccn12)C(=O)OC(C)(C)C (stereo not shown) [Compound 100]
[1]
  GPR17 Fold Induction (Over Vehicle; 3 μM): 0.83
PDGFRα; [2]
  IC50: > 10 µM

## Cn1cc(-c2ccn3c(N4CCN(C(=O)OC(C)(C)C)CC4)cnc3n2)cn1 [Compound 87]
[1]
  GPR17 Fold Induction (Over Vehicle; 3 μM): 1.43

## Cn1cc(-c2ccc3c(N4CCN(c5ncc(C(O)C(F)(F)F)cn5)CC4)cnn3c2)cn1 (stereo not shown) [Compound 285, 2,2,2-trifluoro-1-(2-{4-[6-(1-methyl-1H-pyrazol-4-yl)pyrazolo[1,5-a]pyridin-3-yl]piperazin-1-yl}pyrimidin-5-yl)ethanol]
[1]
  GPR17 Fold Induction (Over Vehicle; 3 μM): 6.20
PDGFRα; [2]
  IC50: 7.62 µM

## CC(C)(C)OC(=O)N1CCN(c2cnn3cc(C4CCCC4)ccc23)CC1 [Compound 214, tert-butyl 4-(6-cyclopentylpyrazolo[1,5-a]pyridin-3-yl)piperazine-1-carboxylate]
[1]
  GPR17 Fold Induction (Over Vehicle; 3 μM): 2.00
PDGFRα; [2]
  IC50: > 10 µM

## CN(CCN(C)c1cnc2nc(-c3cnn(C)c3)ccn12)C(=O)OC(C)(C)C [Compound 108, tert-butyl methyl(2-(methyl(7-(1-methyl-1H-pyrazol-4-yl)imidazo[1,2-a]pyrimidin-3-yl)amino)ethyl)carbamate]
[1]
  GPR17 Fold Induction (Over Vehicle; 3 μM): 0.54
PDGFRα; [2]
  IC50: > 10 µM

## CC(C)(C)OC(=O)N1CCCN(c2cnc3cc(-c4cccnc4)ncn23)CC1 [Compound 92, tert-butyl 4-(7-(pyridin-3-yl)imidazo[1,2-c]pyrimidin-3-yl)-1,4-diazepane-1-carboxylate]
[1]
  GPR17 Fold Induction (Over Vehicle; 3 μM): 0.81
PDGFRα; [2]
  IC50: > 10 µM

## Cn1cc(-c2ccc3c(N4CCN(c5nnc(Cc6ccccc6)o5)CC4)cnn3c2)cn1 [Compound 155, 2-benzyl-5-(4-(6-(1-methyl-1H-pyrazol-4-yl)pyrazolo[1,5-a]pyridin-3-yl)piperazin-1-yl)-1,3,4-oxadiazole]
[1]
  GPR17 Fold Induction (Over Vehicle; 3 μM): 5.02
PDGFRα; [2]
  IC50: 0.0586 µM

## Cc1ccc(F)c(NC(=O)Nc2ccc(-c3cccc4[nH]nc(N)c34)cc2)c1 [Linifanib (ABT-869), linifanib, reference compound]
[1]; primary rat OPCs, 5 μM (10x; final 0.5 μM per method), percent GPR17+ cells as fold change over vehicle
  GPR17 Fold Induction (Over Vehicle; 5 μM): 4.68
PDGFRα; 20 ng purified PDGFRα, Poly (Glu4Tyr1) substrate, two hours, 11-point dose response, read-out: IC50 Values on PDGFRα Kinase Inhibition
  IC50: 1.21 µM

## CC(C)(C)OC(=O)N1CCCN(c2cnc3nc(C4CCOC4)ccn23)CC1 (stereo not shown) [Compound 107, tert-butyl 4-(7-(tetrahydrofuran-3-yl)imidazo[1,2-a]pyrimidin-3-yl)-1,4-diazepane-1-carboxylate]
[1]
  GPR17 Fold Induction (Over Vehicle; 3 μM): 0.58
PDGFRα; [2]
  IC50: > 10 µM

## Cn1cc(-c2ccc3c(N4CCN(C(=O)OCc5ccccc5C(N)=O)CC4)cnn3c2)cn1 [Compound 280, 2-carbamoylbenzyl 4-(6-(1-methyl-1H-pyrazol-4-yl)pyrazolo[1,5-a]pyridin-3-yl)piperazine-1-carboxylate]
[1]
  GPR17 Fold Induction (Over Vehicle; 3 μM): 3.05
PDGFRα; [2]
  IC50: 6.18 µM

## Cn1cc(-c2ccc3c(CCc4ncc(Cc5ccccc5)cn4)cnn3c2)cn1 [Compound 305, 3-(2-(5-benzylpyrimidin-2-yl)ethyl)-6-(1-methyl-1H-pyrazol-4-yl)pyrazolo[1,5-a]pyridine]
[1]
  GPR17 Fold Induction (Over Vehicle; 3 μM): 1.15

## Cn1cc(-c2ccc3c(N4CCN(C(=O)OCc5ccc(Cl)cc5)CC4)cnn3c2)cn1 [Compound 198, 4-chlorobenzyl 4-(6-(1-methyl-1H-pyrazol-4-yl)pyrazolo[1,5-a]pyridin-3-yl)piperazine-1-carboxylate]
[1]
  GPR17 Fold Induction (Over Vehicle; 3 μM): 9.23

## Cn1cc(-c2ccn3ncc(N4CCN(c5ncc(Cc6ccccc6)cn5)CC4)c3c2)cn1 [Compound 4, 3-[4-(5-benzylpyrimidin-2-yl)piperazin-1-yl]-5-(1-methyl-1H-pyrazol-4-yl)pyrazolo[1,5a]pyridine]
PDGFRα; [2]
  IC50: > 10 µM

## Cn1cc(-c2ccc3c(N4CCN(Cc5ccc(Cl)cc5)CC4)cnn3c2)cn1 [Compound 202, 3-(4-(4-chlorobenzyl)piperazin-1-yl)-6-(1-methyl-1H-pyrazol-4-yl)pyrazolo[1,5-a]pyridine]
[1]
  GPR17 Fold Induction (Over Vehicle; 3 μM): 1.94

## CN(CCCN(C)c1cnn2cc(-c3cnn(C)c3)ccc12)c1ncc(Cc2ccccc2)cn1 [Compound 130]
[1]
  GPR17 Fold Induction (Over Vehicle; 3 μM): 1.57
